In patent US8188059B2, “Compounds and methods for modulating expression of GCGR” (Isis Pharmaceuticals, Inc., priority 2006, dated 2012):
Strand notation (5' to 3'): a small letter for the sugar, then the base; units joined by * are phosphorothioate-linked, units joined directly phosphodiester-linked; [ ] holds rarer units or linkages, { } end groups; capitals alone tell only the bases. e = 2'-O-(2-methoxyethyl) (MOE); [5mC] = 5-methylcytosine; d = 2'-deoxy (DNA)

Key:
rat DGAT2 mRNA [1] = assay: Dose-dependent inhibition of DGAT2 in A10 cells, 0.62-150 nM (Example 22, Table 83); type: cell-based
Protocol: Additional short antisense compounds targeted to DGAT2 mRNA were tested in vitro. A10 cells were prepared as described above and treated with 0.62, 1.85, 5.56, 16.67, 50.0, and 150.0 nM short antisense compounds to determine if DGAT2 inhibition occurs in a dose-dependent manner. DGAT2 mRNA was measured using quantitative real-time PCR, as described herein. […] Results are presented as percent inhibition of rat DGAT2, relative to untreated control cells.

DGAT2 mRNA = assay: Antisense inhibition of DGAT2 in A10 cells at 75 nM (Example 22, Table 81); type: cell-based, rat; settings: approximately 24 hours
Protocol: Short antisense compounds targeted to a DGAT2 nucleic acid were tested for their effects on DGAT2 mRNA in vitro. Cultured A10 cells in a 96-well plate were treated with 75 nM of short antisense compound. After a treatment period of approximately 24 hours, RNA was isolated from the cells and DGAT2 mRNA levels were measured by quantitative real-time PCR, as described herein. DGAT2 mRNA levels were adjusted according to total RNA content as measured by RIBOGREEN®. […]

rat DGAT2 mRNA [2] = assay: Dose-dependent inhibition of DGAT2 in A10 cells, 6.25-200 nM (Example 22, Table 82); type: cell-based
Protocol: Additional short antisense compounds targeted to DGAT2 mRNA were tested in vitro in a dose-response experiment. A10 cells were prepared as described above and treated with 6.25, 12.5, 25.0, 50.0, 100.0, and 200.0 nM short antisense compounds to determine if DGAT2 inhibition occurs in a dose-dependent manner. […] Results are presented as percent inhibition, relative to untreated control cells.

[3] = Triglyceride, cholesterol and glucose levels, pre-bleed and post-bleed (Example 4, Table 34); type: in vivo, mouse; settings: C57/BL6 mice, single i.p. dose, 48 hours
Protocol: (§1) Eight-week old male C57/BL6 mice (Jackson Laboratory, Bar Harbor, Me.) were administered a single dose of GCGR oligonucleotide by intraperitoneal injection at a concentration of […]. Each dose group consisted of four animals. Shown in Table 31 are the sequences, motifs and conjugates of the GCGR antisense compounds used in this study. Bolded residues indicate 2′-O-methoxyethyl (2′-MOE) moieties. All compounds comprise phosphorothioate internucleoside linkages throughout and each cytosine is replaced with 5-methylcytosine. ISIS 386626, ISIS 386627 and ISIS 386628 further comprise a C16 conjugate group attached to the 2′-O position of the sugar via a diamide linkage (2′-OCH2C(═O)N(H)(CH2)4N(H)C(═O)—(CH2)15CH3). GCGR antisense compounds target published GCGR sequences, including Genbank® Accession No. BC031885.1 (SEQ ID NO: 7).
(§2) Mice were sacrificed 48 hours following injection to determine serum transaminase levels (Table 32); liver, white adipose tissue (WAT), spleen and kidney weight (Table 33); cholesterol, triglyceride and glucose levels (Table 34); GCGR mRNA levels (Tables 35-41); and full-length and total oligonucleotide concentration in liver and kidney (Table 42). Endpoints were assessed using methods described herein and well known to those of ordinary skill in the art. Data is included from a pre-treatment bleed (Pre-Bleed) and post-treatment bleed (Post-Bleed).

GCGR mRNA = GCGR mRNA levels in liver of C57/BL6 mice, single i.p. dose (Example 4, Tables 35-41); type: in vivo, mouse; settings: liver, single i.p. dose, 48 hours
Protocol: as §1, §2
To determine whether the phenotypic changes shown above correlated with a decrease in GCGR mRNA, treated animals were evaluated for levels of target mRNA in liver by real time PCR according to methods described herein. Tables 35 to 41 show results from direct comparisons of the antisense compounds targeting GCGR nucleic acid for their effect on target expression. Results are expressed as percent of saline control.

mouse SGLT2 mRNA = assay: Mouse SGLT2 mRNA levels in kidney, additional 1-10-1 and 2-8-2 MOE gapmers, Balb/c mice (Example 15, Table 68); type: in vivo
Protocol: 1-10-1 and 2-8-2 MOE gapmer short antisense compounds were designed to target different regions of the mouse SGLT2 RNA but have complementarity across species. […] All cytidine residues are 5-methylcytidines.
The short antisense compounds were analyzed for their effect on mouse SGLT2 mRNA levels in vivo. Data was taken from three experiments in which male 6-week old Balb/c mice were dosed twice per week for three weeks with 0.5, 0.1, or 0.02 umol/kg of either a 1-10-1 or 2-8-2 MOE gapmer given by intraperitoneal injection. Mice were sacrificed 48 hours following last administration and evaluated for SGLT2 levels in kidney. Target levels were determined by RT, real-time PCR as described by other examples herein. PCR results were normalized to an internal ISIS control.

SGLT2 mRNA = SGLT2 mRNA levels in kidney of Balb/c mice, twenty 1-10-1 MOE gapmers at 350 nmol/kg, PPS 534 and PPS 553 (Example 18, Table 74); type: in vivo, mouse; settings: 350 nmol/kg i.p. twice per week for two weeks
Protocol: Twenty 1-10-1 MOE gapmers that are complementary to human/monkey/mouse/rat SGLT2 were designed, synthesized and tested in vivo for suppression of SGLT2 mRNA levels in kidney. Data are averages from two experiments in which male 6-week old Balb/c mice were administered intraperitoneal injections of 350 nmol/kg of oligonucleotide, twice per week, over a period of two weeks (a total of four injections). Mice were sacrificed 48 hours following the last administration and evaluated for SGLT2 mRNA levels in kidney. SGLT2 mRNA levels were determined by quantitative real-time PCR analysis according to standard procedures, using two different PCR primer probe sets, primer probe set (PPS) 534 and PPS 553. SGLT2 mRNA levels were normalized to cyclophilin mRNA levels, which were also measured by quantitative real-time PCR.

Substance | percent inhibition of rat DGAT2 (rat DGAT2 mRNA [1]; 0.62 nM) | percent inhibition of rat DGAT2 (rat DGAT2 mRNA [1]; 1.85 nM) | percent inhibition of rat DGAT2 (rat DGAT2 mRNA [1]; 5.56 nM) | percent inhibition of rat DGAT2 (rat DGAT2 mRNA [1]; 16.67 nM) | percent inhibition of rat DGAT2 (rat DGAT2 mRNA [1]; 50 nM) | percent inhibition of rat DGAT2 (rat DGAT2 mRNA [1]; 150 nM) | DGAT2 mRNA, % Control (DGAT2 mRNA) [%] | further results
372624 (antisense eT*eG*dG*dT*d[5mC]*dT*dT*dG*dT*dG*dA*dT*eT*eG) [compound 372624] | 0 | 0 | 0 | 1 | 16 | 38 | 56 | 
372508 (antisense eA*eG*eT*dT*d[5mC]*d[5mC]*dT*dG*dG*dT*dG*dG*dT*e[5mC]*eA*eG) [compound 372508] | 0 | 0 | 6 | 14 | 39 | 71 | 35 | 
372546 (antisense eT*eT*eG*dG*dT*d[5mC]*dT*dT*dG*dT*dG*dA*dT*eT*eG*eT) [compound 372546] | 0 | 2 | 11 | 4 | 48 | 78 | 34 | 
372569 (antisense e[5mC]*eA*dT*dG*dA*dG*dG*dA*dT*dG*dA*d[5mC]*eA*e[5mC]) [compound 372569] |  |  |  |  |  |  | 104 | 
372491 (antisense eA*e[5mC]*eA*dT*dG*dA*dG*dG*dA*dT*dG*dA*d[5mC]*eA*e[5mC]*eT) [compound 372491] |  |  |  |  |  |  | 80 | 
372503 (antisense eG*e[5mC]*eA*dG*dG*dT*dT*dG*dT*dG*dT*dG*dT*e[5mC]*eT*eT) [compound 372503] | 7 | 10 | 4 | 25 | 54 | 80 | 35 | 
372568 (antisense eG*eA*d[5mC]*dA*d[5mC]*dT*dG*d[5mC]*dA*dG*dG*d[5mC]*e[5mC]*eA) [compound 372568] |  |  |  |  |  |  |  | percent inhibition of DGAT2 (rat DGAT2 mRNA [2]; 6.25 nM): 0; percent inhibition of DGAT2 (rat DGAT2 mRNA [2]; 12.5 nM): 0; percent inhibition of DGAT2 (rat DGAT2 mRNA [2]; 50.0 nM): 26; percent inhibition of DGAT2 (rat DGAT2 mRNA [2]; 100.0 nM): 72; percent inhibition of DGAT2 (rat DGAT2 mRNA [2]; 200.0 nM): 69; percent inhibition of DGAT2 (rat DGAT2 mRNA [2]; […]): 15
372594 (antisense eA*e[5mC]*dA*dG*dA*dA*dG*dG*d[5mC]*dA*d[5mC]*d[5mC]*e[5mC]*eA) [compound 372594] | 0 | 0 | 0 | 0 | 2 | 15 | 77 | 
ISIS 386626: GCGR 2-10-2 MOE gapmer with C16 conjugate group at the 2′-O position via a diamide linkage (antisense GCTTCTCCATCATA; chemistry not fully specified) |  |  |  |  |  |  |  | post-bleed glucose levels [3]: decreased in a dose-dependent manner; GCGR mRNA expression (GCGR mRNA): greatest decrease
ISIS 388627 (antisense eG*e[5mC]*dA*d[5mC]*dA*d[5mC]*dA*dG*d[5mC]*dT*eG*e[5mC]) |  |  |  |  |  |  |  | % change in SGLT2 expression relative to saline (mouse SGLT2 mRNA; 0.02 umol/kg i.p. twice per week for three weeks): −38%; % change in SGLT2 expression relative to saline (mouse SGLT2 mRNA; 0.1 umol/kg i.p. twice per week for three weeks): −50%; % change in SGLT2 expression relative to saline (mouse SGLT2 mRNA; 0.5 umol/kg i.p. twice per week for three weeks): −65%
379693 (antisense e[5mC]*dA*dT*dG*dG*dT*dG*dA*dT*dG*d[5mC]*e[5mC]) [compound 379693] |  |  |  |  |  |  |  | SGLT2 mRNA in kidney, % change relative to saline (SGLT2 mRNA; primer probe set 534): −51.6%; SGLT2 mRNA in kidney, % change relative to saline (SGLT2 mRNA; primer probe set 553): −59.9%
